How the values were obtained:
BTK C481S protein = BTK C481S protein (Homo sapiens (Human), UniProt Q06187, C481S); experiment: BTK C481S HTRF displacement assay; type: binding; details: 1-hour incubation
Summary of the method: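 N-terminal GST-tagged BTK C481S (2-659) incubated 1 hour at room temperature with compound (6 doses, four-fold from 5 μM), 50 nM kinase tracer 239 and anti-GST-Tb antibody. TR-FRET 665/620 ratio, background-subtracted; IC50 from constrained four-parameter fit. KI=IC50/(1+[Tracer]/Kd), tracer Kd 54 nM.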

BTK wildtype protein = BTK wildtype protein (Homo sapiens (Human), UniProt Q06187); experiment: BTK wildtype HTRF displacement assay; type: binding; details: 1-hour incubation; read-out: BTK (wt) IC50
Sequence of BTK wildtype protein (Q06187 2-659): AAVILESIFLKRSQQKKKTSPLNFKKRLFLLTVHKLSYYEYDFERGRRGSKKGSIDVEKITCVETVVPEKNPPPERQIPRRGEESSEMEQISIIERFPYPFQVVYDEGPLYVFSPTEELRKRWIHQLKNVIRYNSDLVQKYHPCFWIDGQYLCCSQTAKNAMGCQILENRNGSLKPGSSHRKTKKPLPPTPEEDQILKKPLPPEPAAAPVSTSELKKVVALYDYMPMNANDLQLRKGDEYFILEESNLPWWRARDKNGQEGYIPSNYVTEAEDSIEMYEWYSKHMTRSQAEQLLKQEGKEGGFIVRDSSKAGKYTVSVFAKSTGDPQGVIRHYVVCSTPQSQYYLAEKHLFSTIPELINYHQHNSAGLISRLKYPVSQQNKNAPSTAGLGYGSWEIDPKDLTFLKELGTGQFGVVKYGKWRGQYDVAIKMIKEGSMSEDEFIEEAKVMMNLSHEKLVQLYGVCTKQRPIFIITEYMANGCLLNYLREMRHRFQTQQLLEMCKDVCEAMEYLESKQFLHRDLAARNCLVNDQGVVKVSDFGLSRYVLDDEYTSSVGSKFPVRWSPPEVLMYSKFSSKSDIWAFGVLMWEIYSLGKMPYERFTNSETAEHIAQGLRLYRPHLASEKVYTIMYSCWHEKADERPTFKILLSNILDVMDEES
Summary of the method: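 Full-length N-terminal GST-tagged BTK incubated 1 h at room temperature with compound (6 doses, four-fold dilutions from 5 μM top) plus kinase tracer 239 and anti-GST-Tb antibody. Tracer displacement read as TR-FRET 665/620 ratio, background-subtracted using no-protein control. IC50 from four-parameter fit constrained 0–100% inhibition.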

Sequence of BTK C481S protein (Q06187 2-659 C481S): as the sequence (Q06187 2-659) above, with C480S counted along it

| SMILES | IC50 (BTK C481S protein) [nM] | IC50 (BTK wildtype protein) [nM] |
| --- | --- | --- |
| Cc1[nH]c2c(C(N)=O)cc(F)c(N3CCCC(N(C)C(=O)n4cncn4)C3)c2c1C (centres unmarked) [Compound 262, 5-fluoro-2,3-dimethyl-4-(3-(N-methyl-1H-1,2,4-triazole-1-carboxamido)piperidin-1-yl)-1H-indole-7-carboxamide] | ≤ 1000 | ≤ 1000 |
| CN(C(=O)n1cncn1)C1CCCCC1n1nc(-c2ccc(Oc3ccccc3)cc2)c2c(N)ncnc21 (centres unmarked) [Compound 263, N-(2-(4-amino-3-(4-phenoxyphenyl)-1H-pyrazolo[3,4-d]pyrimidin-1-yl)cyclohexyl)-N-methyl-1H-1,2,4-triazole-1-carboxamide] | ≤ 1000 | ≤ 1000 |
| NC(=O)c1c(-c2ccc(Oc3ccccc3)cc2)nn2c1NCC[C@H]2[C@H]1CCCCN1C(=O)n1cncn1 [Compound 266, (S)-7-((R)-1-(1H-1,2,4-triazole-1-carbonyl)piperidin-2-yl)-2-(4-phenoxyphenyl)-4,5,6,7-tetrahydropyrazolo[1,5-a] pyrimidine-3-carboxamide] | ≤ 1000 | ≤ 1000 |
| Nc1ncnc2c1c(-c1ccc(Oc3ccccc3)cc1)nn2CC1CCCCN1C(=O)n1cncn1 (centres unmarked) [Compound 267, (2-((4-amino-3-(4-phenoxyphenyl)-1H-pyrazolo[3,4-d]pyrimidin-1-yl)methyl)piperidin-1-yl)(1H-1,2,4-triazol-1-yl)methanone] | ≤ 1000 | ≤ 1000 |
| COc1ccc(F)cc1C(=O)NCc1ccc(-c2nn(C(Cc3ccccn3)CN(C)C(=O)n3cncn3)c3ncnc(N)c23)cc1 (centres unmarked) [Compound 268, N-(2-(4-amino-3-(4-((5-fluoro-2-methoxybenzamido)methyl)phenyl)-1H-pyrazolo[3,4-d]pyrimidin-1-yl)-3-(pyridin-2-yl)propyl)-N-methyl-1H-1,2,4-triazole-1-carboxamide] | > 1000 | > 1000 |
| COc1ccc(F)cc1C(=O)NCc1ccc(-c2nn([C@H]3CC[C@@H](N(C)C(=O)n4cncn4)C3)c3ncnc(N)c23)cc1 [Compound 269, N-((1R,3S)-3-(4-amino-3-(4-((5-fluoro-2-methoxybenzamido)methyl)phenyl)-1H-pyrazolo [3,4-d]pyrimidin-1-yl)cyclopentyl)-N-methyl-1H-1,2,4-triazole-1-carboxamide] | ≤ 1000 | ≤ 1000 |
| COc1ccc(F)cc1C(=O)NCc1ccc(-c2nn(CC3CN(C(=O)n4cncn4)C3)c(N)c2C(N)=O)cc1 [Compound 270, 1-((1-(1H-1,2,4-triazole-1-carbonyl)azetidin-3-yl)methyl)-5-amino-3-(4-((5-fluoro-2-methoxybenzamido)methyl)phenyl)-1H-pyrazole-4-carboxamide] | ≤ 1000 | ≤ 1000 |
| COc1ccc(F)cc1C(=O)NCc1ccc(-c2nn(CC3C(C)CCCN3C(=O)n3cncn3)c3ncnc(N)c23)cc1 (centres unmarked) [Compound 271, N-(4-(4-amino-1-((3-methyl-1-(1H-1,2,4-triazole-1-carbonyl)piperidin-2-yl)methyl)-1H-pyrazolo[3,4-d]pyrimidin-3-yl)benzyl)-5-fluoro-2-methoxybenzamide] | > 1000 | > 1000 |
| CN(C(=O)n1cncn1)C1CCC2C(CNc3c(C(N)=O)c(-c4ccc(Oc5ccccc5)cc4)nn32)C1 (centres unmarked) [Compound 272, 7-(N-methyl-1H-1,2,4-triazole-1-carboxamido)-2-(4-phenoxyphenyl)-4,5,5a,6,7,8,9,9a-octahydropyrazolo [1,5-a]quinazoline-3-carboxamide] | ≤ 1000 | ≤ 1000 |
| COc1ccc(C)cc1C(=O)NCc1ccc(-c2nn(C3CCC(N(C)C(=O)n4cnnn4)C3)c3ncnc(N)c23)cc1 (centres unmarked) [Compound 273, N-(3-(4-amino-3-(4-((2-methoxy-5-methylbenzamido)methyl)phenyl)-1H-pyrazolo[3,4-d]pyrimidin-1-yl)cyclopentyl)-N-methyl-1H-tetrazole-1-carboxamide] | ≤ 1000 | ≤ 1000 |
| COc1ccc(F)cc1C(=O)NCc1ccc(-c2nn(C[C@@H]3CCCCN3C(=O)n3cncn3)c3ncnc(N)c23)cc1 [Compound 274, (S)-N-(4-(1-((1-(1H-1,2,4-triazole-1-carbonyl)piperidin-2-yl)methyl)-4-amino-1H-pyrazolo[3,4-d]pyrimidin-3-yl)benzyl)-5-fluoro-2-methoxybenzamide] | ≤ 1000 | ≤ 1000 |
| COc1ccc(C)cc1C(=O)NCc1ccc(-c2nn(C3CCC(N(C)C(=O)n4cncn4)C3)c3ncnc(N)c23)cc1 (centres unmarked) [Compound 275, N-(3-(4-amino-3-(4-((2-methoxy-5-methylbenzamido)methyl)phenyl)-1H-pyrazolo[3,4-d]pyrimidin-1-yl)cyclopentyl)-N-methyl-1H-1,2,4-triazole-1-carboxamide] | ≤ 1000 | ≤ 1000 |
| COc1ccc(F)cc1C(=O)NCc1ccc(-c2nn(-c3cc(N(C)C(=O)n4cncn4)ccc3C)c3ncnc(N)c23)cc1 [Compound 276, N-(3-(4-amino-3-(4-((5-fluoro-2-methoxybenzamido)methyl)phenyl)-1H-pyrazolo[3,4-d]pyrimidin-1-yl)-4-methylphenyl)-N-methyl-1H-1,2,4-triazole-1-carboxamide] | > 1000 | ≤ 1000 |
| NC(=O)c1nn2c(C3CCCCN3C(=O)n3cncn3)ccnc2c1-c1ccc(Oc2ccccc2)cc1 (centres unmarked) [Compound 277, 7-(1-(1H-1,2,4-triazole-1-carbonyl)piperidin-2-yl)-3-(4-phenoxy-phenyl)pyrazolo[1,5-a]pyrimidine-2-carboxamide] | > 1000 | > 1000 |
| COc1ccc(F)cc1C(=O)NCc1ccc(-c2nn(C(C)CC3CCCN3C(=O)n3cncn3)c3ncnc(N)c23)cc1 (centres unmarked) [Compound 279, N-(4-(1-(1-(1-(1H-1,2,4-triazole-1-carbonyl)pyrrolidin-2-yl)propan-2-yl)-4-amino-1H-pyrazolo[3,4-d]pyrimidin-3-yl)benzyl)-5-fluoro-2-methoxybenzamide] | > 1000 | > 1000 |
| NC(=O)c1c(-c2ccc(Oc3ccccc3)cc2)nn2c1NCCC2[C@@H]1CCCN1C(=O)n1cncn1 (stereo partly drawn) [Compound 280, 7-((S)-1-(1H-1,2,4-triazole-1-carbonyl)pyrrolidin-2-yl)-2-(4-phenoxyphenyl)-4,5,6,7-tetrahydropyrazolo[1,5-a] pyrimidine-3-carboxamide] | ≤ 1000 | > 1000 |
| COc1ccc(F)cc1C(=O)NCc1ccc(-c2nn(C(Cc3ccncc3)CN(C)C(=O)n3cncn3)c3ncnc(N)c23)cc1 (centres unmarked) [Compound 281] | > 1000 | > 1000 |
| NC(=O)c1c(-c2ccc(Oc3ccccc3)cc2)nn2c1NCCC2C1CCN(C(=O)n2cncn2)C1 (centres unmarked) [Compound 282, 7-(1-(1H-1,2,4-triazole-1-carbonyl)pyrrolidin-3-yl)-2-(4-phenoxyphenyl)-4,5,6,7-tetrahydropyrazolo[1,5-a] pyrimidine-3-carboxamide] | ≤ 1000 | ≤ 1000 |
| COC[C@@H](C1CCNc2c(C(N)=O)c(-c3ccc(Oc4ccccc4)cc3)nn21)N(C)C(=O)n1cncn1 (stereo partly drawn) [Compound 285, 7-((R)-2-methoxy-1-(N-methyl-1H-1,2,4-triazole-1-carboxamido)ethyl)-2-(4-phenoxyphenyl)-4,5,6,7-tetrahydropyrazolo [1,5-a]pyrimidine-3-carboxamide] | > 1000 | > 1000 |
| COc1ccc(F)cc1C(=O)NCc1ccc(-c2nn(CCCN(C(=O)n3cncn3)C3CC3)c3ncnc(N)c23)cc1 [Compound 287, N-(3-(4-amino-3-(4-((5-fluoro-2-methoxybenzamido)methyl)phenyl)-1H-pyrazolo[3,4-d]pyrimidin-1-yl)propyl)-N-cyclopropyl-1H-1,2,4-triazole-1-carboxamide] | ≤ 1000 | ≤ 1000 |
| NC(=O)c1c(-c2ccc(Oc3ccccc3)cc2)nn2c1NCC1CCN(C(=O)n3cncn3)CC12 (centres unmarked) [Compound 288, 2-(4-phenoxyphenyl)-8-(1H-1,2,4-triazole-1-carbonyl)-4,5,5a,6,7,8,9,9a-octahydropyrazolo[1,5-a]pyrido [4,3-e]pyrimidine-3-carboxamide] | ≤ 1000 | ≤ 1000 |
| COCCC(CN(C)C(=O)n1cncn1)n1nc(-c2ccc(CNC(=O)c3cc(F)ccc3OC)cc2)c2c(N)ncnc21 (centres unmarked) [Compound 291, N-(2-(4-amino-3-(4-((5-fluoro-2-methoxybenzamido)methyl)phenyl)-1H-pyrazolo[3,4-d]pyrimidin-1-yl)-4-methoxybutyl)-N-methyl-1H-1,2,4-triazole-1-carboxamide] | > 1000 | > 1000 |
| COc1ccc(F)cc1C(=O)NCc1ccc(-c2nn(C[C@H]3CCCN3C(=O)n3cncn3)c3ncnc(N)c23)cc1 [Compound 292, (R)-N-(4-(1-((1-(1H-1,2,4-triazole-1-carbonyl)pyrrolidin-2-yl)methyl)-4-amino-1H-pyrazolo[3,4-d]pyrimidin-3-yl)benzyl)-5-fluoro-2-methoxybenzamide] | ≤ 1000 | ≤ 1000 |
| COc1ccc(F)cc1C(=O)NCc1ccc(-c2nn(CC3CCCN3C(=O)n3cncn3)c(N)c2C(N)=O)cc1 (centres unmarked) [Compound 293, 1-((1-(1H-1,2,4-triazole-1-carbonyl)pyrrolidin-2-yl)methyl)-5-amino-3-(4-((5-fluoro-2-methoxybenzamido)methyl)phenyl)-1H-pyrazole-4-carboxamide] | ≤ 1000 | ≤ 1000 |
| COc1ccc(F)cc1C(=O)NCc1ccc(-c2nn(CC3CCCC3N(C)C(=O)n3cncn3)c(N)c2C(N)=O)cc1 (centres unmarked) [Compound 294, N-(2-((5-amino-4-carbamoyl-3-(4-((5-fluoro-2-methoxybenzamido)methyl)phenyl)-1H-pyrazol-1-yl)methyl)cyclopentyl)-N-methyl-1H-1,2,4-triazole-1-carboxamide] | ≤ 1000 | ≤ 1000 |

Source: patent US20240294531A1, “COVALENT HETEROCYCLES AND USES THEREOF” (Kumquat Biosciences Inc., priority 2022, published 2024)
